Read-outs that look alike come from different tables or passages of the source.
What was measured:
[1] = biological target: pp 28-luciferase expressing CMV (Towne); experiment: microbe, parasite or virus in culture; format: cell-based, human CMV; settings: for inhibition of CMV replication: different batches and passages of HFF, and HEL cells
Source text: A recombinant virus expressing luciferase reporter gene under the control of UL99 (pp 28) late promoter was generated by insertion of the reporter gene between the US9 and US10 ORFs in the Towne genome. […] Ahn J H, Hayward G S. Disruption of PML-associated nuclear bodies by IE1 correlates with efficient early stages of viral gene expression and DNA replication in human cytomegalovirus infection. Virology. 2000; 274:39-55.
(§1) Towne-GFP, Towne-luciferase, and SB viruses were used in these assays. HFF or HEL were grown to subconfluent monolayers and infected with the CMV viruses at MOI 0.1 to 3. […] J Mol Med. 2002; 80:233-242. The concentration of each compound was calculated and adjusted by volume such that it was constant throughout the experiment. Following 90 minute incubation, media was replaced with fresh media containing the drug used. Infected and treated cells were incubated at 37° C. in a 5% CO2 atmosphere for 3-10 days depending on the virus and the anti-viral assay. The recombinant luciferase-expressing virus was incubated for 72 hours, the GFP virus was incubated for 5 days, and the clinical isolate for 10 days. All experiments were subsequently repeated with compounds added to wells just after viral inoculation.

[2] = system: Human Foreskin Fibroblasts (HFF)
Description: (§2) Cellular cytotoxicity was determined using CellTiter-Glo® Luminescent Cell Viability Assay (Promega, Madison, Wis.). The assay determines the number of viable cells in culture based on quantification of the ATP present.
(§3) For EC50 and CC50 reported values represent the mean and SD of data derived from at least five independent experiments performed in triplicates.

[3] = system: GFP-tagged CMV (Towne-GFP); experiment: GFP-tagged CMV replication in pretreated HFF; format: cell-based, human CMV; settings: pretreatment of HFF with different concentrations; data not shown
Description: The CMV strains used for infections were the highly-passaged Towne virus, and a clinical isolate obtained from the urine of a neonate with congenital CMV infection (SB) and passaged once in tissue culture. […] Initial experiments were performed using a recombinant human CMV-green fluorescent protein (GFP) virus, derived from Towne strain. […] J Virol.
as §1

[4] = system: CMV IE1 protein expression; experiment: Western blot for CMV immediate early protein IE1 (and GFP); format: cell-based, human CMV; design: expression of IE1 and GFP: dose or concentration left out as unconfirmed; settings: for expression of IE1 and GFP: Towne-GFP, artemisinin; for IE1 expression: clinical isolate SB, MOI=1
Description: Monoclonal antibodies to CMV immediate early proteins IE-1 and IE-2 (MAb810) and to cellular β-actin were purchased from Millipore (Billerica, Mass.). Confluent cells were infected with CMV in the presence of artemisinin compounds. At the indicated times cells were harvested in sample buffer (RIPA buffer, Tris 50 mM, Nacl 150 mM, SDS 0.1%, Na Deoxycholate 0.5%, NP40 1%, and protease inhibitor cocktail), boiled and loaded onto SDS-PAGE. Proteins were separated by electrophoresis and transferred to nitrocellulose membrane. After blocking, blots were probed with primary antibody (1:3,000) overnight at 4° C. in phosphate-buffered saline, and Tween. After washing 3 times, blots were probed with HRP-conjugated anti-mouse (Sigma), 1:5,000 for 1 hour at room temperature. Blots were washed three times in phosphate-buffered saline/Tween, and then developed by enhanced chemiluminescence according to manufacturer protocol.
The expression of CMV immediate early (IE) protein was tested by western blot to determine whether artemisinins' inhibition of CMV replication occurs early in the virus life cycle. […] Further evidence for the early effect of artemisinins on IE1 protein expression was obtained with the clinical isolate (SB, FIG. 5b). […] Stinski M F. Sequence of protein synthesis in cells infected by human cytomegalovirus: early and late virus-induced polypeptides. J Virol. 1978; 26:686-701.

[5] = system: Human Foreskin Fibroblasts (HFF); experiment: Cellular cytotoxicity, CellTiter-Glo Luminescent Cell Viability Assay; settings: drug concentration that leads to 50% cellular cytotoxicity; mean and SD, at least five experiments in triplicates
Description: as §2, §3

CMV clinical isolates = settings: 11.1 μM; cited from earlier work
[6] = system: Toxoplasmosis (Toxoplasma gondii); experiment: Anti-toxoplasmosis activity of supernatants of CMV infected cells; format: cell-based; settings: supernatants of CMV infected cells at 3-5 days post infection
Description: To confirm that the difference in anti-CMV activity between monomers and dimers was not a result of instability of the monomers in tissue culture, the anti-toxoplasmosis activity of these compounds was determined in the supernatants of CMV infected cells at 3-5 days post infection. […] Antimicrob Agents Chemother. 2006; 50:4206-4208.

[7] = system: recombinant luciferase-expressing CMV; experiment: Plaque reduction assay in human embryonic lung cells (HEL); format: cell-based, human CMV; settings: 10 μM, luciferase virus
Description: For plaque reduction assay, human embryonic lung cells were seeded into six-well plates and incubated at 37° C. one day prior to infection with the recombinant luciferase-expressing CMV. […] The virus was diluted to a desired concentration which gave 50-60 plaques per well. Medium was aspirated from the wells, and 0.2 ml of virus suspension was added to each well in triplicates. Plates were incubated for 90 minutes with shaking every 10 min, thereafter drugs were added and a methylcellulose overlay applied to each well. After incubation for 10 days, cells were stained with crystal violet. The stain was aspirated, wells were washed with phosphate-buffered saline, and plaques were counted.

## C[C@H]1[C@@H](CCC(=O)Nc2ccc(F)cc2)O[C@@H]2OC3(C)CC[C@H]4[C@H](C)CC[C@@H]1[C@@]24OO3 [Artefanilide (3), Artefanilide]
[1]; Table 1, 50% virus inhibition, mean and SD, at least five experiments in triplicates, read-out: EC50
  EC50: 8.1 ± 2.2 µM
[2]
  CC50: 44.9 ± 3.4 µM

## C[C@@H]1CC[C@H]2[C@@H](C)C(=O)O[C@@H]3O[C@@]4(C)CC[C@@H]1[C@]32OO4 [Artemisinin (1), Artemisinin]
[3]
  CMV replication: dose-dependent reduction
[4]; MOI of 0.1
  expression of IE1 and GFP: undetectable
[4]; MOI of 0.5
  expression of IE1 and GFP: decreased

## C[C@H]1[C@H](OC(=O)CCC(=O)O)O[C@@H]2O[C@@]3(C)CC[C@H]4[C@H](C)CC[C@@H]1[C@@]24OO3 [Artesunate (2d), Artesunate]
[1]; Human betaherpesvirus 5
  EC50: 18.5 ± 5.2 µM
[5]
  CC50: 77.5 ± 14.4 µM
CMV clinical isolates
  in-vitro inhibition of clinical isolates: 50-80%

## C[C@H]1[C@@H](CC(COP(=O)(Oc2ccccc2)Oc2ccccc2)C[C@H]2O[C@@H]3O[C@@]4(C)CC[C@H]5[C@H](C)CC[C@@H]([C@H]2C)[C@@]35OO4)O[C@@H]2O[C@@]3(C)CC[C@H]4[C@H](C)CC[C@@H]1[C@@]24OO3 (stereo partly drawn) [Dimer isobu-OP(O)(OPh)2]
[1]; FIGS. 7 and 8
  rank as CMV inhibitor among eight representative dimers: most potent
[1]; eight representative dimers, FIGS. 7 and 8
  selectivity index: > 1000

## C[C@H]1[C@@H](CC(CO)C[C@H]2O[C@@H]3O[C@@]4(C)CC[C@H]5[C@H](C)CC[C@@H]([C@H]2C)[C@@]35OO4)O[C@@H]2O[C@@]3(C)CC[C@H]4[C@H](C)CC[C@@H]1[C@@]24OO3 (stereo partly drawn) [Dimer primary alcohol (4)]
[6]
  EC50: 0.4 ± 0.15 µM
[1]
  inhibition of CMV replication: dramatic inhibition
[4]; SB, MOI=3, prior to onset of DNA replication
  time post infection at which inhibition of IE1 expression was observed (as early as): 12 h
[4]; 1-μM, 24 and 48 hr
  IE1 expression: significantly reduced

## C[C@H]1[C@@H](CC(C[C@H]2O[C@@H]3O[C@@]4(C)CC[C@H]5[C@H](C)CC[C@@H]([C@H]2C)[C@@]35OO4)CS(=O)(=O)c2ccc(COC(=O)N(C)C)cc2)O[C@@H]2O[C@@]3(C)CC[C@H]4[C@H](C)CC[C@@H]1[C@@]24OO3 (stereo partly drawn) [Dimer sulfone carbamate (6)]
[1]
  inhibition of CMV replication: dramatic inhibition

## Nc1nc(O)c2ncn(COC(CO)CO)c2n1 [GCV, Ganciclovir]
[1]; 10 μM, FIG. 2
  CMV inhibition compared with the four monomers: more potent
[4]; 10 μM
  IE1 expression: not affected
[7]
  reduction in plaque formation: 80%
